Source: patent US9205137B2, “Maturation of gastrointestinal tract” (ANARA AB, priority 2010, dated 2015)

Tests used:
[1] = tested on: suckling rats; experiment: Set I: intestinal morphology of distal SI, Example 3; type: in vivo, Rattus norvegicus; conditions: distal part of SI, in words
Description: (§1) All samples collected for histology were fixed with Bouin's solution for 24 hours and then stored in 70% ethanol, dehydrated, embedded into the paraffin and then cut into sections with 5 μm thickness. The tissue sections were transferred onto the slides, rehydrated and stained with H&E according to the standard technique. After mounting under cover slips samples were examined using light microscopy to estimate ratio between total length of the villus and length of the adult type enterocytes using ImageJ program.

[2] = tested on: suckling rats; experiment: Set I: plasma concentration of marker molecules BSA and BIgG (macromolecule absorption), Example 3; type: in vivo, Rattus norvegicus; conditions: 3 hours after marker feeding, day 17, in words (FIG. 6)
From the text: The plasma level of marker molecules was quantified by using immunoassay rocket electrophoresis and SRI (single radial immunodiffusion) for plasma BSA and BIgG respectively.

[3] = tested on: suckling rats; experiment: Set II: intestinal morphology of distal SI at different doses of protease, Example 4; type: in vivo, Rattus norvegicus; conditions: in words (FIG. 8)
Description: The second study was about comparing the effect of different doses of protease (15000 USP, 7500 USP, 3750 USP and […]) on the development of the GI tract with control. In this experiment 2 litters of pups were used (n=13 and n=12). Pups were divided into five groups to fed with different doses of protease; 15000 USP (n=3), P7500 USP (n=6), P 3750 USP (n=6), P 1875 USP (n=5) and water as a control (n=5). The feeding was during 3 continuous days, once a day. 24 hours after the last feeding, on day 17, similar dissection steps and analytical procedures as mentioned for the previous experiment were followed.
as §1

[4] = tested on: rat pups; experiment: Set III: health and growth monitored for 3 weeks after protease, early and normal weaning, Example 5; type: in vivo; conditions: protease 15 000 USP
From the text: In the last study, the health and the growth of the pups were monitored for 3 weeks. Pups where treated at age 14 day of life with the protease 15 000 USP/rat/day for 3 days once a day (on days 14, 15, and 16). This study performed using 3 litters (n=9, n=11 and n=10) where pups were divided into 2 groups; enzyme treated and control. After last feeding rat were further divided into subgroups: early weaning started on day 17 (n=8) and normal weaning started on day 21 (n=6). All animals were monitored via weighing for one week on a daily basis and then once a week for the next 2 weeks.

[5] = tested on: suckling piglets; experiment: Suckling pig model II: marker molecules absorption in vivo after microbial protease, Experiment 10; conditions: protease treated piglets vs control
Description: All piglets were kept with sow until the weaning day. Piglets from 5-6 litters divided into 2 groups and treated with microbial protease (Sigma) (enz group) or water (cont) (n=28 per group), total 56. The dose of enzymes was 60 mg/ml with activity 1000 USP per 1 mg, the administration volume was 4 ml/kg b. wt, the frequency of administration was every second day (ones a day). Treatment via gavage feeding was started at 8 d of age and was done 3 times, (i.e. 8, 10, 12 d of life).
Separate piglets (6 enzyme treated and 6 control pigs) were fed with marker molecule solution (Bovine serum albumin (BSA) in concentration 125 mg/ml and sodium fluorescein (NaF) in concentration 2.5 mg/ml; the administration volume was 4 ml/kg b.wt) at age 14 d of life and 27 d of life (the weaning day). Blood was collected at 0, […], 1, 2, 4, 8, and 24 hours after marker-cocktail feeding.

With “Proteinase from Aspergillus melleus [Protease]” as the substance, how does the “replacement of vacuolated enterocytes by adult type enterocytes” value [1] read?
Its value is “all of the vacuolated enterocytes were replaced with adult type enterocytes”.

And the “uptake of marker molecule BIgG to plasma” value [2]?
Its value is “significantly lower”.

And the “uptake of marker molecule BSA to plasma” value [2]?
The value was “significantly lower”.

And the “vacuolated (fetal-type) enterocytes in distal SI” value (“vacuolated … in distal SI” below) ([3]; protease 1875 USP)?
Its value is “limited to the middle and the tip of the villi”.

What about the “vacuolated … in distal SI” value ([3]; protease 3750 USP) of the same substance?
Its value is “limited to the middle and the tip of the villi”.

What about the “vacuolated … in distal SI” value ([3]; protease 7500 USP) of the same substance?
Its value is “limited to the middle and the tip of the villi”.

And the “vacuolated … in distal SI” value ([3]; protease 15000 USP)?
Its value is “all of the vacuolated enterocytes disappeared”.

And the diarrhea ([4]; after first treatment)?
The diarrhea was “signs of diarrhea”.

What about the “growth in comparison to control group” value ([4]; in words (FIG. 9)) of the same substance?
Its value is “decrease in growth after first treatment”.

And the “effect of early weaning on treated group” value ([4]; weaning day 17, in words)?
Its value is “no disadvantage”.

What about the “intestinal permeability for BSA” value ([5]; in words (FIG. 20A)) of the same substance?
Its value is “decreased intestinal permeability”.

What about the “intestinal permeability for NaF” value ([5]; in words (FIG. 20B)) of the same substance?
The value was “decreased intestinal permeability”.
